Experimental data taken from patent publication US7468359B2, “Compositions comprising oxophosphonate-based metalloproteinase inhibitors” (Yissum Research Develpment Company of the Hebrew University …, priority 1999, dated 2008).
Where two headings read alike, the source gives them in different places.

Columns and labels:
cancer cells = test: Matrigel chemoinvasion assay in Boyden chambers; assay type: cell-based; conditions: for inhibition at 50 µM: read-out: % Inhibition of Chemoinvasion 50 uM
MMP2 = biological target: T1, MMP2 (Homo sapiens, UniProt P08253); test: Activity on pure MMP2 enzyme; assay type: biochemical
T1 sequence (P08253 110-660): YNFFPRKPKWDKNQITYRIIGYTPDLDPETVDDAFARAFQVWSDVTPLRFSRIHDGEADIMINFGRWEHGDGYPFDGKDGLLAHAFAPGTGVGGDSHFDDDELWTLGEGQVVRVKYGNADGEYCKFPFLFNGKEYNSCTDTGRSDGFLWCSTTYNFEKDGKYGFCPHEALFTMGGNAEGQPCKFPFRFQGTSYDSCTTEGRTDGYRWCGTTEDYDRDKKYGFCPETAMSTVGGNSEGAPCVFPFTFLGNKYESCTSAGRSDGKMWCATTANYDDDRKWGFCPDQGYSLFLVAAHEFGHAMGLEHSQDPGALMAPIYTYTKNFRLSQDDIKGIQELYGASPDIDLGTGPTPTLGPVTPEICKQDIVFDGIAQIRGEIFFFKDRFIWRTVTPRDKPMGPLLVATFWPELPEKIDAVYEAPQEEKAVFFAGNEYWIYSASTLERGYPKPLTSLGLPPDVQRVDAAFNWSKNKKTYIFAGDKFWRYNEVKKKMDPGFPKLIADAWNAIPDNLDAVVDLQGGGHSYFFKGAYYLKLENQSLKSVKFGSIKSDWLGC

Endothelial cells = test: Endothelial cell tube formation (capillary formation); assay type: cell-based
murine melanoma = test: Metastasis formation in the murine melanoma model; assay type: in vivo, mice; conditions: 50 mg/kg daily injections for 21 d, lung tumors counted, vs untreated animals

With `O=C(NC1CCCCC1)P(=O)(O)O` [Example 5, Hydrogen Sodium N-cyclohexylcarbamoylphosphonate] the “concentration at which active in the Boyden chamber chemoinvasion assay” value (shortened to “concentration at which active”) (cancer cells) was 1 µM and the IC50 (MMP2) was 80 nM.
With `O=C(Cc1ccccc1)P(=O)([O-])O.[Na+]` [Compound 12] the Activity (cancer cells) was “+ (key: ++++: active at submicromolar concen-tration; +++: active at 1-10 μM; ++: active at 50-100 μM; +: active at 100 μM; −: not active at 100 μM)”.
For `O=C(NC1CCCC1)P(=O)(O)O` [Example 16, N-cyclopentylcarbamoylphosphonic Acid], the “% Inhibition of Chemoinvasion 50 uM” value (cancer cells; 50 uM) was 65%, the “% Inhibition of Capillary Formation 50 UM” value (Endothelial cells) was 70% and the “% Inhibition of Metastasis Formation 50 mg/kg for 21 d” value (“% Inhibition … for 21 d” for short) (murine melanoma) was 70%.
In the case of `O=C(NCCc1c[nH]cn1)P(=O)(O)O` [Example 15, Phosphonoformylhistamine], the “% Inhibition of Chemoinvasion 50 uM” value (cancer cells) is reported as 15%.
For `CNC(=O)[C@H](Cc1ccc(OC)cc1)NC(=O)[C@@H](CC(=O)NO)CC(C)C` [SC-44463, reference compound], the “% Inhibition … for 21 d” value (murine melanoma) was 70-75%.
In the case of `O=C(NCCN1CCOCC1)P(=O)(O)O` [Example 7, N-(2-[4-morpholino]ethyl)phosphonoformamide Betaine], the “concentration at which active” value (cancer cells) is reported as 100 µM.
`O=C(c1ccccc1)P(=O)([O-])O.[Na+]` [Compound 7] was tested, and the Activity (cancer cells) was “++ (key: ++++: active at submicromolar concen-tration; +++: active at 1-10 μM; ++: active at 50-100 μM; +: active at 100 μM; −: not active at 100 μM)”.
`O=C(NCCc1ccccc1)P(=O)([O-])O.[Na+]` [Compound 17] was tested, and the Activity (cancer cells; preliminary screening, invasion/chemotaxis chambers vs untreated preparations) was “+ (active at 100 μM)”.
`CCC(=O)P(=O)([O-])O.[Na+]` [Compound 10] was tested, and the Activity (cancer cells) was “+ (key: ++++: active at submicromolar concen-tration; +++: active at 1-10 μM; ++: active at 50-100 μM; +: active at 100 μM; −: not active at 100 μM)”.
For `CNC(=O)[C@H](Cc1ccc(OC)cc1)NC(=O)[C@H](CC(C)C)NC(=O)P(=O)(O)O` [Example 20, Phosphonoformyl-Leu-Tyr(Me)-NHMe], the “% Inhibition of Chemoinvasion 50 uM” value (cancer cells; 50 uM) was 39%, the “% Inhibition of Capillary Formation 50 UM” value (Endothelial cells) was 38% and the “% Inhibition … for 21 d” value (murine melanoma) was 75%.
In the case of `CN(C)CCNC(=O)P(=O)(O)O` [Compound 26, N-(2-dimethylaminoethyl)phosphonoformamide Betaine], the Activity (cancer cells) is reported as “++++ (key: ++++: active at submicromolar concen-tration; +++: active at 1-10 μM; ++: active at 50-100 μM; +: active at 100 μM; −: not active at 100 μM)”, the inhibition at 50 µM (cancer cells) is reported as 66% and the inhibition at 50 µM (Endothelial cells; Endothelial cell, read-out: % Inhibition of Capillary Formation 50 µM) is reported as 75%. The “% Inhibition … for 21 d” value (murine melanoma) was 73% and the IC50 (MMP2) was 25 nM.
For `O=C(NCCN1CCCCC1)P(=O)(O)O` [Example 8, N-(2-[1-piperidino]ethyl)phosphonoformamide Betaine], the “concentration at which active” value (cancer cells) was 100 µM.
With `CNC(=O)[C@H](Cc1ccccc1)NC(=O)[C@H](CC(C)C)NC(=O)P(=O)(O)O` [Example 19, Phosphonoformyl-Leu-Phe-NHMe] the “% Inhibition of Chemoinvasion 50 uM” value (cancer cells) was 55% and the “% Inhibition of Capillary Formation 50 UM” value (Endothelial cells) was 60%.
For `CNC(=O)[C@H](Cc1ccccc1)NC(=O)[C@H](CC(C)C)[C@H](CSc1cccs1)C(=O)NO` [Batimastat, reference compound], the inhibition at 50 µM (cancer cells) was 40%.
`O=C(NCc1ccccc1)P(=O)([O-])O.[Na+]` [Compound 16] was tested, and the Activity (cancer cells) was “++ (key: ++++: active at submicromolar concen-tration; +++: active at 1-10 μM; ++: active at 50-100 μM; +: active at 100 μM; −: not active at 100 μM)”.
`O=P([O-])([O-])Cc1ccc(Cl)cc1.[Na+].[Na+]` [Compound 38, p-chlorobenzylphosphonic acid sodium salt, reference compound] was tested, and the Activity (cancer cells) was “− (key: ++++: active at submicromolar concen-tration; +++: active at 1-10 μM; ++: active at 50-100 μM; +: active at 100 μM; −: not active at 100 μM)” and the MMP inhibiting activity (cancer cells) was “completely devoid of inhibitory activity”.
With `CNC(=O)C(NC(=O)C(Cc1ccccc1)NC(=O)P(=O)(O)O)C(C)C` (stereo not drawn) [Example 21, Phosphonoformyl-Phe-Val-CONHMe] the “% Inhibition of Chemoinvasion 50 uM” value (cancer cells; 50 uM) was 41%.
For `O=C(OCc1ccccc1)P(=O)([O-])O.[Na+]` [Compound 5], the Activity (cancer cells) was “++ (key: ++++: active at submicromolar concen-tration; +++: active at 1-10 μM; ++: active at 50-100 μM; +: active at 100 μM; −: not active at 100 μM)”.
In the case of `COP(=O)([O-])C(=O)Cc1ccccc1.[Na+]` [Compound 13], the Activity (cancer cells) is reported as “++ (key: ++++: active at submicromolar concen-tration; +++: active at 1-10 μM; ++: active at 50-100 μM; +: active at 100 μM; −: not active at 100 μM)”.
`O=C(NCCN1CCCC1)P(=O)(O)O` [Example 9, N-(2-[1-pyrrolidino]ethyl)phosphonoformamide Betaine] was tested, and the “concentration at which active” value (cancer cells) was 100 µM.
For `CC(=O)NCCNC(=O)P(=O)(O)O` [Example 10, N-(2-acetamidoethyl)phosphonoformamide], the “concentration at which active” value (cancer cells) was 100 µM.
In the case of `O=C(NC1CCCCC1)P(=O)(O)O` [Compound 33], the Activity (cancer cells) is reported as “++++ (key: ++++: active at submicromolar concen-tration; +++: active at 1-10 μM; ++: active at 50-100 μM; +: active at 100 μM; −: not active at 100 μM)”.
In the case of `CCC(=O)P(=O)([O-])OC.[Na+]` [Compound 11], the Activity (cancer cells) is reported as “+ (key: ++++: active at submicromolar concen-tration; +++: active at 1-10 μM; ++: active at 50-100 μM; +: active at 100 μM; −: not active at 100 μM)”.
For `CCCCNC(=O)P(=O)([O-])O.[Na+]` [Compound 23], the Activity (cancer cells) was “+ (key: ++++: active at submicromolar concen-tration; +++: active at 1-10 μM; ++: active at 50-100 μM; +: active at 100 μM; −: not active at 100 μM)”.
For `CNC(=O)[C@@H](NC(=O)[C@H](CC(C)C)NC(=O)P(=O)(O)O)C(C)C` [Example 18, Phosphonoformyl-Leu-Val-NHMe], the “% Inhibition of Chemoinvasion 50 uM” value (cancer cells; 50 uM) was 38% and the “% Inhibition of Capillary Formation 50 UM” value (Endothelial cells) was 42%.
For `O=C(NCCSCc1ccccc1)P(=O)(O)O` [Example 17, N-(S-benzylmercaptoethyl)carbamoylphosphonic Acid], the “% Inhibition of Chemoinvasion 50 uM” value (cancer cells; 50 uM) was 61% and the “% Inhibition of Capillary Formation 50 UM” value (Endothelial cells) was 58%.
With `CCOC([O-])[PH](=O)C(=O)N(C)O.[Na+]` (stereo not shown) [Compound 1] the Activity (cancer cells) was “++ (key: ++++: active at submicromolar concen-tration; +++: active at 1-10 μM; ++: active at 50-100 μM; +: active at 100 μM; −: not active at 100 μM)”.
In the case of `O=C(c1ccc(Cl)cc1)P(=O)([O-])[O-].[Na+].[Na+]` [Compound 8, p-chlorobenzoylphosphonic acid sodium salt], the Activity (cancer cells) is reported as “+++ (key: ++++: active at submicromolar concen-tration; +++: active at 1-10 μM; ++: active at 50-100 μM; +: active at 100 μM; −: not active at 100 μM)” and the MMP inhibiting activity (cancer cells) is reported as “considerable MMP inhibiting activity”.
`CCC(=NO)P(=O)([O-])OC.[Li+]` [Compound 14] was tested, and the Activity (cancer cells) was “+ (key: ++++: active at submicromolar concen-tration; +++: active at 1-10 μM; ++: active at 50-100 μM; +: active at 100 μM; −: not active at 100 μM)”.
